System: panel of stable reporter viruses (DENV1, DENV2, DENV3, DENV4, ZIKV, YFV, JEV)
Format: cell-based

## C#C[C@@]1(O)[C@H](O)[C@@H](CO)O[C@H]1n1ccc2c(N)ncnc21 [NITD008]
  EC50 values: potent
  luciferase expression compared to control: decreased luciferase expression

Source: patent US20230066882A1, “Stable Reporter Flavivirus” (priority 2021, published 2023)
